# From ChEMBL document CHEMBL1687760, “Secondary integrase resistance mutations found in HIV-1 minority quasispecies in integrase therapy-naive patients have little or no effect on susceptibility to integrase inhibitors” (Antimicrob Agents Chemother, 2010)
# Legend:
# [1] = tested on: Human immunodeficiency virus 1; assay: Antiviral activity against Human immunodeficiency virus 1 3B harboring integrase L74M mutant infected in human MT4 cells assessed as inhibition of virus induced cytopathic effect relative to wild type HIV1; format: functional
# [2] = tested on: Human immunodeficiency virus 1; assay: Antiviral activity against Human immunodeficiency virus 1 3B harboring integrase E92G mutant infected in human MT4 cells assessed as inhibition of virus induced cytopathic effect relative to wild type HIV1; format: functional
# [3] = tested on: Human immunodeficiency virus 1; assay: Antiviral activity against Human immunodeficiency virus 1 3B harboring integrase T97A mutant infected in human MT4 cells assessed as inhibition of virus induced cytopathic effect relative to wild type HIV1; format: functional
# [4] = tested on: Human immunodeficiency virus 1; assay: Antiviral activity against Human immunodeficiency virus 1 3B harboring integrase G140S mutant infected in human MT4 cells assessed as inhibition of virus induced cytopathic effect relative to wild type HIV1; format: functional
# [5] = tested on: Human immunodeficiency virus 1; assay: Antiviral activity against Human immunodeficiency virus 1 3B harboring integrase K156N mutant infected in human MT4 cells assessed as inhibition of virus induced cytopathic effect relative to wild type HIV1; format: functional
# [6] = tested on: Human immunodeficiency virus 1; assay: Antiviral activity against Human immunodeficiency virus 1 3B harboring integrase V165I mutant infected in human MT4 cells assessed as inhibition of virus induced cytopathic effect relative to wild type HIV1; format: functional
# [7] = tested on: Human immunodeficiency virus 1; assay: Antiviral activity against Human immunodeficiency virus 1 clone 15_7 harboring integrase E11D, S17T, L45V, M50T, I72V, L74I, T97A, K111T, S119G, T125A infected in human MT4 cells assessed as inhibition of virus induced cytopathic effect relative to wild type HIV1; format: functional
# [8] = tested on: Human immunodeficiency virus 1; assay: Antiviral activity against Human immunodeficiency virus 1 clone 15_19 harboring integrase E11D, S17T, L45V, M50T, I72V, L74I, T97A, K111T, S119G, T125A infected in human MT4 cells assessed as inhibition of virus induced cytopathic effect relative to wild type HIV1; format: functional
# [9] = tested on: Human immunodeficiency virus 1; assay: Antiviral activity against Human immunodeficiency virus 1 clone 18_13 harboring integrase S17N, T124N, T125A, G140S, M154I, S195C infected in human MT4 cells assessed as inhibition of virus induced cytopathic effect relative to wild type HIV1; format: functional
# [10] = tested on: Human immunodeficiency virus 1; assay: Antiviral activity against Human immunodeficiency virus 1 clone 50_2 harboring integrase R20K, A23V, E92G, T124N, I141V, G193E, V201I, T206S, I220V, D279G infected in human MT4 cells assessed as inhibition of virus induced cytopathic effect relative to wild type HIV1; format: functional
# [11] = tested on: Human immunodeficiency virus 1; assay: Antiviral activity against Human immunodeficiency virus 1 clone 1 harboring integrase E11D, S17T, L45V, M50I, M50T, I72V, L74I, K111T, S119G, T125A relative to wild type HIV1; format: functional
# [12] = tested on: Human immunodeficiency virus 1; assay: Antiviral activity against Human immunodeficiency virus 1 clone 5 harboring integrase E11D, S17T, S39G, L45V, M50I, I72V, L74I, K111T, S119G, T125A relative to wild type HIV1; format: functional
# [13] = tested on: Human immunodeficiency virus 1; assay: Antiviral activity against Human immunodeficiency virus 1 clone 12 harboring integrase E11D, S17T, L45V, M50T, I72V, L74I, K111T, S119G, T125A relative to wild type HIV1; format: functional
# [14] = tested on: Human immunodeficiency virus 1; assay: Antiviral activity against Human immunodeficiency virus 1 clone 20 harboring integrase E11D, S17T, L45V, M50T, I72V, L74I, K111T, T125A, I217V relative to wild type HIV1; format: functional
# [15] = tested on: Human immunodeficiency virus 1; assay: Antiviral activity against Human immunodeficiency virus 1 clone 3 harboring integrase S17N, I84I, T124N, T125A, M154I, S195C mutant gene relative to wild type HIV1; format: functional
# [16] = tested on: Human immunodeficiency virus 1; assay: Antiviral activity against Human immunodeficiency virus 1 clone 9 harboring integrase S17N, I84I, T124N, T125A, M154I, A175T, S195C mutant gene relative to wild type HIV1; format: functional
# [17] = tested on: Human immunodeficiency virus 1; assay: Antiviral activity against Human immunodeficiency virus 1 clone 14 harboring integrase S17N, T124N, T125A, M154I, S195C, V201I mutant gene relative to wild type HIV1; format: functional
# [18] = tested on: Human immunodeficiency virus 1; assay: Antiviral activity against Human immunodeficiency virus 1 clone 16 harboring integrase S17N, T124N, T125A, M154I, S195C, V201I mutant gene relative to wild type HIV1; format: functional
# [19] = tested on: Human immunodeficiency virus 1; assay: Antiviral activity against Human immunodeficiency virus 1 clone 2 harboring integrase R20K, A23V, E92G, T124N, I141V, G193E, V201I, T206S, I220V, D279G mutant gene relative to wild type HIV1; format: functional
# [20] = tested on: Human immunodeficiency virus 1; assay: Antiviral activity against Human immunodeficiency virus 1 3B infected in human MT4 cells assessed as inhibition of virus induced cytopathic effect; format: functional, organism-based
# [21] = tested on: Human immunodeficiency virus 1; assay: Antiviral activity against Human immunodeficiency virus 1 3B harboring integrase T66I mutant infected in human MT4 cells assessed as inhibition of virus induced cytopathic effect relative to wild type HIV1; format: functional
# [22] = tested on: Human immunodeficiency virus 1; assay: Antiviral activity against Human immunodeficiency virus 1 3B harboring integrase L68V mutant infected in human MT4 cells assessed as inhibition of virus induced cytopathic effect relative to wild type HIV1; format: functional
# [23] = tested on: Human immunodeficiency virus 1; assay: Antiviral activity against Human immunodeficiency virus 1 3B harboring integrase I72V mutant infected in human MT4 cells assessed as inhibition of virus induced cytopathic effect relative to wild type HIV1; format: functional
# [24] = tested on: Human immunodeficiency virus 1; assay: Antiviral activity against Human immunodeficiency virus 1 clone 13 harboring integrase R20K, A23V, T124N, G193E, V201I, T206S, I268V, I220V mutant gene relative to wild type HIV1; format: functional
# [25] = tested on: Human immunodeficiency virus 1; assay: Antiviral activity against Human immunodeficiency virus 1 clone 16 harboring integrase R20K, A23V, M50I, T124N, G193E, V201I, T206S, I220V, D279G mutant gene relative to wild type HIV1; format: functional
# [26] = tested on: Human immunodeficiency virus 1; assay: Antiviral activity against Human immunodeficiency virus 1 clone 17 harboring integrase R20K, A23V, T124N,A129T, I141V, I62T, G193E, V201I, T206S, I220V, D279G mutant gene relative to wild type HIV1; format: functional
# [27] = tested on: Human immunodeficiency virus 1; assay: Antiviral activity against Human immunodeficiency virus 1 clone 19 harboring integrase R20K, A23V, G70E, T124N, I141V, G193E, V201I, T206S, I220V mutant gene relative to wild type HIV1; format: functional
# [28] = tested on: Human immunodeficiency virus 1; assay: Antiviral activity against Human immunodeficiency virus 1 clone 15_7 harboring integrase T97A mutant and T97A, Y143R site-directed mutation relative to wild type HIV1; format: functional
# [29] = tested on: Human immunodeficiency virus 1; assay: Antiviral activity against Human immunodeficiency virus 1 clone 15_19 harboring integrase T97A mutant and T97A, Y143R site-directed mutation relative to wild type HIV1; format: functional
# [30] = tested on: Human immunodeficiency virus 1; assay: Antiviral activity against Human immunodeficiency virus 1 clone 15_12 harboring integrase Y143R site-directed mutation relative to wild type HIV1; format: functional
# [31] = tested on: Human immunodeficiency virus 1; assay: Antiviral activity against Human immunodeficiency virus 1 clone 18_13 harboring integrase G140S mutant and G140S, Q148H site-directed mutation relative to wild type HIV1; format: functional
# [32] = tested on: Human immunodeficiency virus 1; assay: Antiviral activity against Human immunodeficiency virus 1 HXB2 assessed as inhibition of virus induced cytopathic effect relative to wild type HIV1; format: functional
Compound,fold change (FC) [1],fold change (FC) [2],fold change (FC) [3],fold change (FC) [4],fold change (FC) [5],fold change (FC) [6],fold change (FC) [7],fold change (FC) [8],fold change (FC) [9],fold change (FC) [10],fold change (FC) [11],fold change (FC) [12],fold change (FC) [13],fold change (FC) [14],fold change (FC) [15],fold change (FC) [16],fold change (FC) [17],fold change (FC) [18],fold change (FC) [19],EC50 [20] [nM],also measured
COc1cc2c(cc1Cc1cccc(Cl)c1F)c(=O)c(C(=O)O)cn2[C@H](CO)C(C)C [ELVITEGRAVIR],0.7,13,2.6,5.6,0.7,0.8,2.7,2.5,5.6,13,1.4,0.3,1,1,0.6,1.3,1.3,1,13,11.6,fold change (FC) [21]: 10.5; fold change (FC) [22]: 1.1; fold change (FC) [23]: 0.8; fold change (FC) [24]: 0.8; fold change (FC) [25]: 0.7; fold change (FC) [26]: 0.3; fold change (FC) [27]: 1.1; fold change (FC) [28]: 14.6; fold change (FC) [29]: 9.4; fold change (FC) [30]: 4.2; fold change (FC) [31]: >633.7; fold change (FC) [32]: 1.2
Cc1nnc(C(=O)NC(C)(C)c2nc(C(=O)NCc3ccc(F)cc3)c(O)c(=O)n2C)o1 [RALTEGRAVIR],0.9,1.8,1.6,2.4,0.4,0.7,1.5,1.7,2.4,1.8,1.7,0.7,1.1,1.5,0.8,1.1,1.8,1.3,1.8,6.1,fold change (FC) [21]: 0.8; fold change (FC) [22]: 0.4; fold change (FC) [23]: 0.9; fold change (FC) [24]: 0.8; fold change (FC) [25]: 0.8; fold change (FC) [26]: 0.3; fold change (FC) [27]: 1.2; fold change (FC) [28]: 91.6; fold change (FC) [29]: 88.2; fold change (FC) [30]: 13.1; fold change (FC) [31]: 768; fold change (FC) [32]: 1
